Measurements from US6358885B1, “Substituted phenylheterocyclic herbicides” (Mississippi State University, priority 1992, dated 2002).

Assays:
lambsquarters = assay: Test B preemergence/postemergence greenhouse plant response rating 0 to 10; format: in vivo, Chenopodium album; details: 0 to 10 scale
In short: (§1)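 Test chemicals, dissolved in a non-phytotoxic solvent, were applied to soil at planting and, at the same time, over foliage of seedlings at the one to four leaf stage.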

crabgrass = assay: Test C preemergence/postemergence greenhouse plant response rating 0 to 100; format: in vivo, Digitaria sanguinalis; details: POSTEMERGENCE
In short: (§2)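 Compounds in non-phytotoxic solvent went onto sandy loam before emergence (seeded one day earlier) or onto plants at the one-to-four leaf stage. Duck salad was treated via flood water (~2.5 cm, maintained) over silt loam.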

purple nutsedge = assay: Test G preemergence/postemergence greenhouse plant response rating 0 to 100; format: in vivo, Cyperus rotundus; details: Rate 125 g/ha, 0 to 100 scale
Excerpt: (§3) Seeds, rhizomes, or plant parts of alfalfa (Medicago ativa), annual bluegrass (Poa annua), bermudagrass (Cynodon dactylon), broadleaf signalgrass (Brachiaria plantaginea), common purslane (Portulaca oleracea), common ragweed (Ambrosia elatior), […] (Paspalum dilatatum), goosegrass (Eleusine indica), guineagrass (Panicum maximum), […] exaltata), johnsongrass (Sorghum halepense), large crabgrass (Digitaria sanguinalis), peanut (Arachis hypoagaea), pitted morningglory (Ipomoea lacunosa), purple nutsedge (Cyperus rotundus), sandbur (Cenchrus echinatus), smooth crabgrass (Digitaria ischaemum) and yellow nutsedge (Cyperus esculentus) were planted into greenhouse pots containing greenhouse planting medium. Each pot contained only one plant species. The test compound was dissolved in a non-phytotoxic solvent and applied preemergence and/or postemergence to the plants. Preemergence applications were made within one day of planting the seeds or plant parts. Postemergence applications were applied when the plants were in the two to four leaf stage (three to twenty cm). Test chemicals were dissolved in a non-phytotoxic solvent and applied preemergence and postemergence to the plants. Untreated control plants and treated plants were placed in the greenhouse and visually evaluated for injury at 13 to 21 days after herbicide application. […] A dash (-) response indicates no test result.

velvetleaf [1] = assay: Test B preemergence/postemergence greenhouse plant response rating 0 to 10; format: in vivo, Abutilon theophrasti; details: 0 to 10 scale
In short: as §1

alfalfa = assay: Test G preemergence/postemergence greenhouse plant response rating 0 to 100; format: in vivo, Medicago ativa; details: 0 to 100 scale
Excerpt: as §3

rice = assay: Test C flood test plant response rating 0 to 100; format: in vivo, Oryza sativa
In short: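 Compounds in non-phytotoxic solvent applied preemergence to sandy loam one day after planting, postemergence at the 1–4 leaf stage, or to ~2.5 cm floodwater over silt loam.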

cotton = assay: Test C preemergence/postemergence greenhouse plant response rating 0 to 100; format: in vivo, Gossypium hirsutum; details: POSTEMERGENCE
In short: as §2

sorghum = assay: as above; format: in vivo, Sorghum bicolor; details: POSTEMERGENCE
In short: as §2

giant foxtail = assay: Test B preemergence/postemergence greenhouse plant response rating 0 to 10; format: in vivo, Setaria faberii; details: 0 to 10 scale
In short: as §1

pigweed = assay: Test C preemergence/postemergence greenhouse plant response rating 0 to 100; format: in vivo, Amaranthusretroflexus; details: POSTEMERGENCE
In short: as §2

barnyardgrass = assay: Test B preemergence/postemergence greenhouse plant response rating 0 to 10; format: in vivo, Echinochloa crus-galli; details: for Plant response rating, Barnyardgrass: 0 to 10 scale
In short: as §1

sugar beet = assay: as above; format: in vivo, Beta vulgaris; details: 0 to 10 scale
In short: as §1

velvetleaf [2] = assay: Test C preemergence/postemergence greenhouse plant response rating 0 to 100; format: in vivo, Abutilon theophrasti; details: POSTEMERGENCE
In short: as §2

wild oat = assay: as above; format: in vivo, Avena fatua; details: POSTEMERGENCE
In short: as §2

CC(C)N1C(=O)COc2cc(F)c(-c3nn4c(c3Cl)CCCC4)cc21 [Compound 31]
Plant response rating, Lambsquarter (lambsquarters; POSTEMERGENCE, Rate 10 g/ha): 10 | Plant response rating, Lambsquarter (lambsquarters; POSTEMERGENCE, Rate 50 g/ha): 10 | Plant response rating, Lambsquarter (lambsquarters; PREEMERGENCE, Rate 50 g/ha): 10 | Plant response rating, Crabgrass (crabgrass; 62 g/ha, 0 to 100 scale): 50 | Plant response rating (0 to 100), Crabgrass (crabgrass; Rate 1 g/ha): 10 | Plant response rating (0 to 100), Crabgrass (crabgrass; Rate 4 g/ha): 20 | Plant response rating (0 to 100), Crabgrass (crabgrass; Rate 16 g/ha): 30 | Plant response rating, Purple Nutsedge (purple nutsedge; POSTEMERGENCE): 10 | Plant response rating, Purple Nutsedge (purple nutsedge; PREEMERGENCE): 0 | Plant response rating, Velvetleaf (velvetleaf [1]; POSTEMERGENCE, Rate 10 g/ha): 10 | Plant response rating, Velvetleaf (velvetleaf [1]; POSTEMERGENCE, Rate 50 g/ha): 10 | Plant response rating, Velvetleaf (velvetleaf [1]; PREEMERGENCE, Rate 50 g/ha): 9 | Plant response rating, Alfalfa Var. (alfalfa; POSTEMERGENCE, Rate 125 g/ha): 0 | Plant response rating, Alfalfa Var. (alfalfa; POSTEMERGENCE, Rate 250 g/ha): 10 | Plant response rating, Alfalfa Var. (alfalfa; PREEMERGENCE, Rate 125 g/ha): 0 | Plant response rating, Alfalfa Var. (alfalfa; PREEMERGENCE, Rate 250 g/ha): 30 | Plant response rating (0 to 100), Rice Japonica (rice; POSTEMERGENCE section, flood test, Rate 1 g/ha): 0 | Plant response rating (0 to 100), Rice Japonica (rice; POSTEMERGENCE section, flood test, Rate 4 g/ha): 0 | Plant response rating (0 to 100), Rice Japonica (rice; Rate 16 g/ha, under POSTEMERGENCE head (flood test species)): 35 | Plant response rating Rice Japonica (rice; flood test species listed under POSTEMERGENCE, 62 g/ha, 0 to 100 scale): 50 | Plant response rating, Cotton (cotton; 62 g/ha, 0 to 100 scale): 100 | Plant response rating (0 to 100), Cotton (cotton; Rate 1 g/ha): 90 | Plant response rating (0 to 100), Cotton (cotton; Rate 4 g/ha): 100 | Plant response rating (0 to 100), Cotton (cotton; Rate 16 g/ha): 100 | Plant response rating, Sorghum (sorghum; 62 g/ha, 0 to 100 scale): 50 | Plant response rating (0 to 100), Sorghum (sorghum; Rate 1 g/ha): 20 | Plant response rating (0 to 100), Sorghum (sorghum; Rate 4 g/ha): 40 | Plant response rating (0 to 100), Sorghum (sorghum; Rate 16 g/ha): 50 | Plant response rating, Giant foxtail (giant foxtail; POSTEMERGENCE, Rate 10 g/ha): 5 | Plant response rating, Giant foxtail (giant foxtail; POSTEMERGENCE, Rate 50 g/ha): 5 | Plant response rating, Giant foxtail (giant foxtail; PREEMERGENCE, Rate 10 g/ha): 0 | Plant response rating, Giant foxtail (giant foxtail; PREEMERGENCE, Rate 50 g/ha): 3 | Plant response rating Pigweed (pigweed; 62 g/ha, 0 to 100 scale): 100 | Plant response rating (0 to 100), Pigweed (pigweed; Rate 1 g/ha): 95 | Plant response rating (0 to 100), Pigweed (pigweed; Rate 4 g/ha): 100 | Plant response rating (0 to 100), Pigweed (pigweed; Rate 16 g/ha): 100 | Plant response rating, Barnyardgrass (barnyardgrass; POSTEMERGENCE, Rate 10 g/ha): 4 | Plant response rating (0 to 10 scale), Barnyardgrass (barnyardgrass; POSTEMERGENCE, Rate 50 g/ha): 6 | Plant response rating, Barnyardgrass (barnyardgrass; PREEMERGENCE, Rate 10 g/ha): 0 | Plant response rating, Barnyardgrass (barnyardgrass; PREEMERGENCE, Rate 50 g/ha): 3 | Plant response rating, Sugar beet (sugar beet; POSTEMERGENCE, Rate 10 g/ha): 10 | Plant response rating, Sugar beet (sugar beet; POSTEMERGENCE, Rate 50 g/ha): 10 | Plant response rating, Sugar beet (sugar beet; PREEMERGENCE, Rate 50 g/ha): 10 | Plant response rating, Velvetleaf (velvetleaf [2]; 62 g/ha, 0 to 100 scale): 100 | Plant response rating (0 to 100), Velvetleaf (velvetleaf [2]; Rate 1 g/ha): 85 | Plant response rating (0 to 100), Velvetleaf (velvetleaf [2]; Rate 4 g/ha): 95 | Plant response rating (0 to 100), Velvetleaf (velvetleaf [2]; Rate 16 g/ha): 100 | Plant response rating, Wild oat (wild oat; 62 g/ha, 0 to 100 scale): 50 | Plant response rating (0 to 100), Wild oat (wild oat; Rate 1 g/ha): 10 | Plant response rating (0 to 100), Wild oat (wild oat; Rate 4 g/ha): 30 | Plant response rating (0 to 100), Wild oat (wild oat; Rate 16 g/ha): 30

Fc1cc(Cl)c(OC2CCCC2)cc1-c1nn2c(c1Cl)CCCC2 [Compound 24]
Plant response rating, Lambsquarter (lambsquarters; POSTEMERGENCE, Rate 50 g/ha): 9 | Plant response rating, Lambsquarter (lambsquarters; POSTEMERGENCE, Rate 200 g/ha): 10 | Plant response rating, Lambsquarter (lambsquarters; PREEMERGENCE, Rate 50 g/ha): 9 | Plant response rating, Lambsquarter (lambsquarters; Rate 200 g/ha, PREEMERGENCE): 10 | Plant response rating, Purple Nutsedge (purple nutsedge; POSTEMERGENCE): 0 | Plant response rating, Purple Nutsedge (purple nutsedge; PREEMERGENCE): 0 | Plant response rating, Velvetleaf (velvetleaf [1]; POSTEMERGENCE, Rate 50 g/ha): 10 | Plant response rating, Velvetleaf (velvetleaf [1]; POSTEMERGENCE, Rate 200 g/ha): 10 | Plant response rating, Velvetleaf (velvetleaf [1]; PREEMERGENCE, Rate 50 g/ha): 1 | Plant response rating, Velvetleaf (velvetleaf [1]; Rate 200 g/ha, PREEMERGENCE): 9 | Plant response rating, Alfalfa Var. (alfalfa; POSTEMERGENCE, Rate 125 g/ha): 0 | Plant response rating, Alfalfa Var. (alfalfa; POSTEMERGENCE, Rate 250 g/ha): 20 | Plant response rating, Alfalfa Var. (alfalfa; PREEMERGENCE, Rate 125 g/ha): 0 | Plant response rating, Alfalfa Var. (alfalfa; PREEMERGENCE, Rate 250 g/ha): 0 | Plant response rating, Giant foxtail (giant foxtail; POSTEMERGENCE, Rate 50 g/ha): 4 | Plant response rating, Giant foxtail (giant foxtail; POSTEMERGENCE, Rate 200 g/ha): 5 | Plant response rating, Giant foxtail (giant foxtail; PREEMERGENCE, Rate 50 g/ha): 3 | Plant response rating, Giant foxtail (giant foxtail; Rate 200 g/ha, PREEMERGENCE): 8 | Plant response rating (0 to 10 scale), Barnyardgrass (barnyardgrass; POSTEMERGENCE, Rate 50 g/ha): 4 | Plant response rating, Barnyardgrass (barnyardgrass; POSTEMERGENCE, Rate 200 g/ha): 6 | Plant response rating, Barnyardgrass (barnyardgrass; PREEMERGENCE, Rate 50 g/ha): 1 | Plant response rating, Barnyardgrass (barnyardgrass; Rate 200 g/ha, PREEMERGENCE): 4 | Plant response rating, Sugar beet (sugar beet; POSTEMERGENCE, Rate 50 g/ha): 10 | Plant response rating, Sugar beet (sugar beet; POSTEMERGENCE, Rate 200 g/ha): 10 | Plant response rating, Sugar beet (sugar beet; PREEMERGENCE, Rate 50 g/ha): 9 | Plant response rating, Sugar beet (sugar beet; Rate 200 g/ha, PREEMERGENCE): 9
